Assay results: ChEMBL document CHEMBL1201862, “PubChem BioAssay data set” (2004)
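Results reflect a 48-hour exposure of cells in 96-well plates to compound at five concentrations. At the GI50, growth is halved.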 Calls of active or inactive are those of the source. No stated cut-off is given here; in the data, active = GI50 up to about 1.1 µM and inactive = higher.

Experiments:
Assay in all cases: NCI-60 cell line screen, 48 h
SF-268 = test system: SF-268
NCI/ADR-RES = test system: NCI/ADR-RES
SNB-19 = test system: SNB-19
SNB-75 = test system: SNB-75
UACC-257 = test system: UACC-257
Hs-578T = test system: Hs-578T
SK-MEL-2 = test system: SK-MEL-2
BT-549 = test system: BT-549
MOLT-4 = test system: MOLT-4
CCRF-CEM = test system: CCRF-CEM
TK-10 = test system: TK-10
MDA-MB-435 = test system: MDA-MB-435
DU-145 = test system: DU-145
SN12C = test system: SN12C
Malme-3M = test system: Malme-3M
MCF7 = test system: MCF7
CAKI-1 = test system: CAKI-1
HL-60 = test system: HL-60
OVCAR-4 = test system: OVCAR-4
RXF 393 = test system: RXF 393

| SMILES | GI50 (SF-268) | GI50 (NCI/ADR-RES) | GI50 (SNB-19) | GI50 (SNB-75) | GI50 (UACC-257) | GI50 (Hs-578T) | GI50 (SK-MEL-2) | GI50 (BT-549) | GI50 (MOLT-4) | GI50 (CCRF-CEM) | GI50 (TK-10) | GI50 (MDA-MB-435) | GI50 (DU-145) | GI50 (SN12C) | GI50 (Malme-3M) | GI50 (MCF7) | GI50 (CAKI-1) | GI50 (HL-60) | GI50 (OVCAR-4) | GI50 (RXF 393) |
| --- | --- | --- | --- | --- | --- | --- | --- | --- | --- | --- | --- | --- | --- | --- | --- | --- | --- | --- | --- | --- |
| O=C(c1ccccc1)c1c(C(F)(F)F)[n+]([O-])c2cc(Cl)c(Cl)cc2[n+]1[O-] | 0.671 µM (active) | 2.21 µM (inactive) | 1.56 µM (inactive) | 1.31 µM (inactive) | 0.243 µM (active) | 0.849 µM (active) | 3.32 µM (inactive) | 1.39 µM (inactive) | 0.643 µM (active) | 0.467 µM (active) | 1.07 µM (active) | 1.41 µM (inactive) | 0.45 µM (active) | 0.658 µM (active) | 1.72 µM (inactive) | 0.557 µM (active) | 1.58 µM (inactive) | 0.789 µM (active) | 1.56 µM (inactive) | 1.82 µM (inactive) |
| COCn1c(C)c(C)c2c(=O)oc(C)nc21 | > 100 µM (inactive) | > 100 µM (inactive) | > 100 µM (inactive) | 83.4 µM (inactive) | > 100 µM (inactive) | > 100 µM (inactive) | > 100 µM (inactive) | > 100 µM (inactive) | > 100 µM (inactive) | > 100 µM (inactive) | > 100 µM (inactive) | > 100 µM (inactive) | > 100 µM (inactive) | > 100 µM (inactive) | > 100 µM (inactive) | > 100 µM (inactive) | 0.288 µM (active) | > 100 µM (inactive) | > 100 µM (inactive) | > 100 µM (inactive) |
| COc1ccc(OC)c2c1C(=O)C(O)=C(Cl)C2=O | > 100 µM (inactive) | > 100 µM (inactive) | > 100 µM (inactive) | > 100 µM (inactive) | > 100 µM (inactive) | > 100 µM (inactive) | > 100 µM (inactive) | > 100 µM (inactive) | > 100 µM (inactive) | > 100 µM (inactive) | > 100 µM (inactive) | > 100 µM (inactive) | > 100 µM (inactive) | – | > 100 µM (inactive) | > 100 µM (inactive) | > 100 µM (inactive) | > 100 µM (inactive) | > 100 µM (inactive) | > 100 µM (inactive) |
| CN(C)CCCNC(=O)CCNC(=O)c1cc(NC(=O)c2cc(NC(=O)c3cc(NC(=O)c4nccn4C)cn3C)cn2C)cn1C | 44.8 µM (inactive) | > 100 µM (inactive) | 29.6 µM (inactive) | 54.7 µM (inactive) | > 100 µM (inactive) | > 100 µM (inactive) | > 100 µM (inactive) | > 100 µM (inactive) | > 100 µM (inactive) | > 46.8 µM (inactive) | > 100 µM (inactive) | > 100 µM (inactive) | > 100 µM (inactive) | > 100 µM (inactive) | > 100 µM (inactive) | > 100 µM (inactive) | > 100 µM (inactive) | 18.8 µM (inactive) | – | > 100 µM (inactive) |
| COc1ccc(-c2cc(-c3ccc(Nc4ccnc5cc(C(F)(F)F)ccc45)cc3)nc(N)c2C#N)c2ccccc12 | > 100 µM (inactive) | > 100 µM (inactive) | > 100 µM (inactive) | > 100 µM (inactive) | – | 65.2 µM (inactive) | > 100 µM (inactive) | 36.6 µM (inactive) | 53.3 µM (inactive) | – | > 100 µM (inactive) | > 100 µM (inactive) | > 100 µM (inactive) | – | > 100 µM (inactive) | 97.9 µM (inactive) | > 100 µM (inactive) | 70.3 µM (inactive) | > 100 µM (inactive) | > 100 µM (inactive) |
| C=CCN1C(=O)CC(=O)N(NC2=NNC3(C(=O)N2)c2ccccc2-c2ccccc23)C1=S | 51.3 µM (inactive) | 25.4 µM (inactive) | 48.8 µM (inactive) | 48.2 µM (inactive) | 27.5 µM (inactive) | 13.6 µM (inactive) | 25.2 µM (inactive) | 45 µM (inactive) | – | 34 µM (inactive) | 64.1 µM (inactive) | 44.5 µM (inactive) | 44.5 µM (inactive) | 37.2 µM (inactive) | 38 µM (inactive) | 25.8 µM (inactive) | 48.3 µM (inactive) | 27.9 µM (inactive) | 29.4 µM (inactive) | 27.7 µM (inactive) |
| N=C(N)NS(=O)(=O)c1ccc(NC(=O)c2cccc3c(O)c4ccccc4nc23)cc1 | > 100 µM (inactive) | > 100 µM (inactive) | 59.4 µM (inactive) | 31.8 µM (inactive) | > 100 µM (inactive) | > 100 µM (inactive) | > 100 µM (inactive) | > 100 µM (inactive) | > 83 µM (inactive) | 28.9 µM (inactive) | 54.8 µM (inactive) | > 100 µM (inactive) | > 100 µM (inactive) | > 100 µM (inactive) | > 100 µM (inactive) | > 100 µM (inactive) | > 100 µM (inactive) | > 100 µM (inactive) | > 100 µM (inactive) | > 41 µM (inactive) |
| Nc1nc(N)c(C2=CCNCC2)c(=O)[nH]1 | > 100 µM (inactive) | > 100 µM (inactive) | > 100 µM (inactive) | > 100 µM (inactive) | > 100 µM (inactive) | > 100 µM (inactive) | > 100 µM (inactive) | > 100 µM (inactive) | > 100 µM (inactive) | > 100 µM (inactive) | – | > 100 µM (inactive) | > 100 µM (inactive) | > 100 µM (inactive) | > 100 µM (inactive) | > 100 µM (inactive) | > 100 µM (inactive) | > 100 µM (inactive) | > 100 µM (inactive) | > 100 µM (inactive) |
| CC(CC(=O)N1C2CC3CCC2(CS1(=O)=O)C3(C)C)[Si](C)(C)C (centres undefined) | > 100 µM (inactive) | > 100 µM (inactive) | > 100 µM (inactive) | > 100 µM (inactive) | > 100 µM (inactive) | > 100 µM (inactive) | – | > 100 µM (inactive) | > 100 µM (inactive) | > 100 µM (inactive) | > 100 µM (inactive) | > 100 µM (inactive) | > 100 µM (inactive) | > 100 µM (inactive) | > 100 µM (inactive) | > 100 µM (inactive) | > 100 µM (inactive) | > 100 µM (inactive) | – | > 100 µM (inactive) |
| Nc1ncnc2c1ccn2COC(CO)CO | > 100 µM (inactive) | > 100 µM (inactive) | > 100 µM (inactive) | > 100 µM (inactive) | > 100 µM (inactive) | > 100 µM (inactive) | > 100 µM (inactive) | > 100 µM (inactive) | 51.9 µM (inactive) | > 100 µM (inactive) | > 100 µM (inactive) | 62.8 µM (inactive) | > 100 µM (inactive) | > 100 µM (inactive) | > 100 µM (inactive) | 92 µM (inactive) | > 100 µM (inactive) | 90.6 µM (inactive) | > 100 µM (inactive) | 49.4 µM (inactive) |
| O=C1Nc2ccc(Br)cc2/C1=N/NC(=S)Nc1ccc(F)cc1 | 4.31 µM (inactive) | 1.48 µM (inactive) | – | 11.1 µM (inactive) | 9.77 µM (inactive) | 12 µM (inactive) | 10.9 µM (inactive) | 0.395 µM (active) | 2.58 µM (inactive) | – | 5.86 µM (inactive) | 2.4 µM (inactive) | 4.3 µM (inactive) | 4.15 µM (inactive) | 4.95 µM (inactive) | 3.43 µM (inactive) | 2.12 µM (inactive) | 1.6 µM (inactive) | 7.24 µM (inactive) | 1.76 µM (inactive) |
